Tests used:
[1] = system: Human Hematopoietic Stem Cells; experiment: CD-34+ stemness marker expression (immunostaining, ImageJ quantification); type: cell-based; conditions: peptides grafted on a PET surface; 48 hours
[2] = system: hMSCs; experiment: STRO-1 stemness marker expression in hMSCs (immunostaining, ImageJ quantification); type: cell-based, Human; conditions: SEQ ID NO: 1 to 49 tested in combination with a bioactive carrier (titanium, ceramics, PEEK, hydrogel, etc.)
Summary of the method: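 hMSCs exposed to GFR-binding peptides in solution or grafted on surfaces; cells fixed in 4% paraformaldehyde, permeabilized, stained with Stro-1 antibody (1 h, 37° C) plus Alexa Fluor secondary and DAPI. Stro-1 positive contact number and area quantified by thresholded image analysis, at least 30 cells per condition.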

[3] = system: Hair Follicle Stem Cells; experiment: Activation of hair follicle stem cells on modified hydrogels (Sox2, BMP-6 release); type: cell-based, Mouse; conditions: hydrogel 73 kPa covalently modified
[4] = system: hMSCs; experiment: Chondrocyte differentiation of hMSCs on modified hydrogels (Sox9, Aggrecan); type: cell-based, Human; conditions: 96 hours, hydrogel 14 kPa covalently modified; for Aggrecan gene expression: semi-quantitative RT-PCR
Method: (§1) Total RNA was extracted by using the RNeasy total RNA kit (Qiagen®) according to the manufacturer's instructions. Purified total RNA was used as a template in order to make cDNA by a reverse transcription reaction (Gibco Brl®) with random primers (Invitrogen®). The cDNA was then used as a template for a real-time PCR amplification in the presence of SYBR green reagents (Bio-Rad®) by using a thermocycler (iCycler, Biorad®). Data were analyzed with the iCycler IQ™® software and compared by the ΔΔCt method. Briefly, the mean Ct value of the target gene was normalized to its averaged Ct values of the housekeeping gene (HPRT) to give a ΔCt value, which was then normalized to a control sample to obtain a ΔΔCt value.
Total RNA was extracted by using the RNeasy Mini Kit (Qiagen) and […] RNA was used for cDNA synthesis with AMV kit (Invitrogen®) according to the manufacturer' instructions. Semi-quantitative reverse transcriptase-polymerase chain reaction (RT-PCR) was performed with Taq DNA Polymerase (Invitrogen®) in a thermocycler (Bio-Rad®). The cDNA input was normalized to […] (HPRT). The PCR products were analyzed on 2% agarose gels. For the Aggrecan gene, the PCR bands were densitometrically quantified by using the BioCapt software (Vilber). Values were normalized to HPRT, and results were reported as relative gene expression.
For that a semi-quantitative RT-PCR was performed as described in the Methods section for the Aggrecan gene and a Quantitative Real Time PCR for Sox9.

[5] = system: Neurons; experiment: Neuron growth on modified titanium (dendrite growth, GAP43 Q-PCR); type: cell-based; conditions: covalently modified titanium
Method: as §1
Neurons were cultured on native titanium (control) and on titanium covalently modified with neurogenic peptides (SEQ ID NO: 49). […] To further confirm this the expression of the Growth Associated Protein 43 (GAP43) gene was verified for neuron cells cultured on materials covalently modified with neurogenic peptides (SEQ ID NO: 49).

[6] = Stability of non-covalent peptide coating on apatite ceramics / type-I collagen (fluorescent peptides); type: physicochemical; conditions: non-covalent coating on apatite ceramics (SEQ ID NO: 23) or type-I collagen sponge (SEQ ID NO: 22); 3, 7 or 10 days
Method: Non-covalent modifications of the materials were performed in Air Atmosphere at room temperature. The non-covalent coating strategy consisted in using a mixture of inducing peptide (SEQ ID NO: 23; concentration of 1×10^−3M) with an apatite ceramics implant or a mixture of inducing peptide (SEQ ID NO: 22; concentration of 1×10^−3M) with a type-I collagen sponge. The non-covalently coated conventional materials were characterized by using fluorescent peptides (Here SEQ ID NO: 22 and 23 covalently bound to fluorescein isothiocyanate (FITC), FIG. 6). The results shown here in FIG. 6 were obtained from experiments performed with apatite ceramics and a type-I collagen sponge. […] Indeed, after 3, 7 or 10 days, the osteogenic peptides were still coupled to the ceramics or the type-I collagen (FIGS. 7a and b).

[7] = system: Human umbilical-vein endothelial cells; experiment: Angiogenesis: tube-like structure formation of HUVECs on modified PET; type: cell-based; conditions: 18 hours, covalently modified PET
[8] = system: Human umbilical-vein endothelial cells; experiment: Endothelialization: adherent junctions (CD31) of HUVECs on modified PET; type: cell-based; conditions: 36 hours, covalently modified PET
Method: An increase in the area of the adherent junctions (CD31) was observed after 36 hours of culture on the covalently modified PET (FIG. 13).

[9] = system: Human Mesenchymal Stem Cells (hMSCs); experiment: Osteogenic differentiation of human mesenchymal stem cells (Runx2, Osterix immunostaining, ALP activity); type: cell-based; conditions: 1 week, type-I collagen sponge coupled with peptide
[10] = system: mouse mesenchymal pre-osteoblastic cells (MC3T3-E1); experiment: Osteogenic differentiation of osteoblast progenitors (extracellular matrix, Osteopontin, Runx2 Q-PCR); type: cell-based; conditions: 48 hours
Method: The surface profiler system is a non-contact optical profiler that measures a wide range of surface heights. The vertical scanning interferometry mode allows for the measurement of rough surfaces and steps of up to several micrometers. This mode was used in order to measure the thickness of the extracellular matrix produced by the cells. First, after 24 h of culture, the cells were fixed with paraformaldehyde in PBS (4%) for 30 minutes at 4° C. and the samples were dehydrated in increasing concentrations of ethanol (30, 70, 80, 90, 95 and 100%) and critical-point dried. To evaluate the extent of the newly synthesized extracellular matrix, a spatula was used to scratch the surface of the materials. The samples were then metallized for 10 sec with gold or titanium before being analyzed.
Total RNA was extracted by using the RNeasy total RNA kit (Qiagen®) according to the manufacturer's instructions. Purified total RNA was used as a template in order to make cDNA by a reverse transcription reaction (Gibco Brl®) with random primers (Invitrogen®). […] Data were analyzed with the iCycler IQ™® software and compared by the ΔΔCt method. […]
The effect of these GFR-binding compounds as defined herein (SEQ ID NO: 33) on the differentiation of osteoblast progenitors was evaluated. […]

Row | Sequence | CD34+ Expression [1] [%] | STRO-1 expression [2] [%] | other results
1 | AASKASSAPTKMSPINILYF (GFR-binding peptide) [SEQ ID NO: 1079] | 30 | – | –
2 | AASKASSSRVEESATSTLYY (GFR-binding peptide) [SEQ ID NO: 1075] | 28 | – | –
3 | AASKASSVPAKMRPVQTRKI (GFR-binding peptide) [SEQ ID NO: 1085] | 19 | – | –
4 | AASKASSVPEKLSSLSILFF [SEQ ID NO: 41] | – | 28 | BMP-6 release in the cell culture medium [3]: decrease; Sox2 protein expression [3]: increase
5 | AASKASSVPQQLSSLSTLFF (GFR-binding peptide) [SEQ ID NO: 1073] | 29 | – | –
6 | AASKASSVPTKMEPISTLYL (GFR-binding peptide) [SEQ ID NO: 1078] | 30 | – | –
7 | AVPKASSAPTKLEPLPIVYY [SEQ ID NO: 36] | – | 21 | expression of the Sox9 protein [4]: observed; Aggrecan gene expression [4]: increased expression
8 | GIPEPSSVPAKMSPISILYI [SEQ ID NO: 49] | – | 19 | cell-cell contacts via dendrite growth ([5]; 6 hours): rapid establishment; GAP43 gene expression ([5]; 48 hours, Q-PCR): high level of expression
9 | GSAGPSSVPEKMSSLSILFF [SEQ ID NO: 42] | – | 26 | BMP-6 release in the cell culture medium [3]: decrease; Sox2 protein expression [3]: increase
10 | GTPGPHVTKPTSVPTKLSAISMLYL (GTPGPHVTKPTXVPTKLSAISMLYL; GFR-binding peptide; MOD_RES (12)..(12): Xaa is C or S) [SEQ ID NO: 23] | – | 28 | release of peptides over time [6]: no significant release
11 | KIPKASSTPTGQSNITMQIM (GFR-binding peptide) [SEQ ID NO: 1082] | 18 | – | –
12 | KIPKASSTPTRLRSVKMAKV (GFR-binding peptide) [SEQ ID NO: 1083] | 17 | – | –
13 | KIPKASSVPEELEPLPTVYY (GFR-binding peptide) [SEQ ID NO: 1081] | 33 | – | –
14 | KIPKASSVPTKMRPVQMRKI (GFR-binding peptide) [SEQ ID NO: 1084] | 18 | – | –
15 | KIPKASSVSQELEPLTILYY [SEQ ID NO: 37] | – | 17 | expression of the Sox9 protein [4]: observed; Aggrecan gene expression [4]: increased expression
16 | KVGKASSVPTKLSNITMQIM [SEQ ID NO: 39] | – | 32 | formation of tube-like structures [7]: observed
17 | RVPSTSSAPVEESPISTLYI (GFR-binding peptide) [SEQ ID NO: 1076] | 27 | – | –
18 | RVPSTSSTPTKMKPLSILYV (GFR-binding peptide) [SEQ ID NO: 1080] | 31 | – | –
19 | RVPSTSSTQVRLSPISMLFI (GFR-binding peptide) [SEQ ID NO: 1077] | 24 | – | –
20 | RVPSTSSVPQQLNAISTLYF (GFR-binding peptide) [SEQ ID NO: 1074] | 32 | – | –
21 | RVPSTSSVPTDLSSLSILFF (GFR-binding peptide) [SEQ ID NO: 1072] | 26 | – | –
22 | RVPSTSSVPTELSAISVLYL (GFR-binding peptide) [SEQ ID NO: 1071] | 29 | – | –
23 | STPPTSSSRVRLRSVKVAKV [SEQ ID NO: 38] | – | 34 | area of the adherent junctions (CD31) [8]: increase
24 | WWFWGAAPASSSVPTRLSPISVLYK (WWFWGAAPASXXVPTRLSPISVLYK; GFR-binding peptide; MOD_RES (11)..(12): Xaa is C or S) [SEQ ID NO: 32] | – | 27 | ALP activity [9]: increase
25 | WWFWGKASKASSVPTKLSAISMLYL (WWFWGKASKAXXVPTKLSAISMLYL; GFR-binding peptide; MOD_RES (11)..(12): Xaa is C or S) [SEQ ID NO: 33] | – | 26 | differentiation of osteoblast progenitors ([10]; apatite ceramics or type-I collagen sponge coupled with peptide): differentiated into mature osteoblasts; production of extracellular matrix proteins such as Osteopontin (OPN) ([10]; vs native type-I collagen sponge, immunofluorescence): extensive amounts
26 | WWFWGSAGPSSTPTKMSAISMLYL (WWFWGSAGPXXTPTKMSAISMLYL; GFR-binding peptide; MOD_RES (10)..(11): Xaa is C or S) [SEQ ID NO: 22] | – | 29 | release of peptides over time [6]: no significant release

— patent US11578110B2, “Compounds for inducing tissue formation and uses thereof” (HISTIDE AG, priority 2015, dated 2023)
